Columns and labels:
NHE3 = molecular target: T1, NHE3 (Homo sapiens, UniProt P48764); assay: Determination of the NHE-inhibitory effect (recovery of intracellular pH after acidification, BCECF); format: cell-based; conditions: BCECF fluorescence, NHE subtype not given
T1 construct: host or cells: cells, not specified
T1 sequence (P48764 26-834): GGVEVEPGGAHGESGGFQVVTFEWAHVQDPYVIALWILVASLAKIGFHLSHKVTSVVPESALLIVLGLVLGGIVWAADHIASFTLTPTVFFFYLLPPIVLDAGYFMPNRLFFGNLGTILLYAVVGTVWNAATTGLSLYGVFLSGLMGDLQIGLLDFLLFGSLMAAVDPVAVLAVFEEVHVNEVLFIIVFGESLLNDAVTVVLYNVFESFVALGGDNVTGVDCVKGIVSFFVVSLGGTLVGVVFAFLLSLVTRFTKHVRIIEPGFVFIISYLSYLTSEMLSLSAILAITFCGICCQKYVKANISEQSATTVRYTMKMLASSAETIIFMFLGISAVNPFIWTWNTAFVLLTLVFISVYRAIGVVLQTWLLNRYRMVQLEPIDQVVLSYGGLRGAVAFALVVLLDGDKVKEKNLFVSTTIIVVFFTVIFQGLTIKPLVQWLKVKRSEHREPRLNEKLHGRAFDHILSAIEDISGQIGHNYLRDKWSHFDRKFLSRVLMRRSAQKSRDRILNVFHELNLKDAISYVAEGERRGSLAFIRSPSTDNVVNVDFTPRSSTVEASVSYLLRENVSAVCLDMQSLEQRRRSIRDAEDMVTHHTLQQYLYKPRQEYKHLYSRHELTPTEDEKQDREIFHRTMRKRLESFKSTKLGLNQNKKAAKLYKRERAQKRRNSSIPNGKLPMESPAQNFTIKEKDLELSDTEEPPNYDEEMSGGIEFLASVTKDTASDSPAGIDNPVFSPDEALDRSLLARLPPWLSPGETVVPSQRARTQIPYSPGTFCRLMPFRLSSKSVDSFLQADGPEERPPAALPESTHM
Experimental: [drawing 82] was obtained in analogy to the method indicated in Example 16 from 6,8-dichloro-2-methyl-4(R)-[2N-(2-ethoxy-3,4-dioxocyclobuten-1-yl)amino]-phenyl-1,2,3,4-tetrahydroisoquinoline (Example 6) and methylamine. Crystalline solid, m.p. 265° C. Pharmacological Data: Assay: Determination of the NHE-Inhibitory Effect
In this assay, the recovery of the intracellular pH (pHj) after an acidification which occurs even under bicarbonate-free conditions with functional NHE was determined. To this end, the pHj was determined using the pH-sensitive fluorescent dye BCECF (calbiochem, the precursor BCECF-AM was employed). The cells were initially loaded with BCECF. The BCECF fluorescence was determined in a ratio fluorescence spectrometer (Photon Technology International, South Brunswick, N.J., USA) with excitation wavelengths of 505 and 440 nm and an emission wavelength of 535 nm and converted into the pHj using calibration plots. The cells had been incubated in NH4Cl buffer (pH 7.4) for the BCECF loading (NH4Cl buffer: 115 mM NaCl, 20 mM NH4Cl, 5 mM KCl, 1 mM CaCl2, 1 mM MgSO4, 20 mM Hepes, 5 mM glucose, 1 mg/ml BSA; a pH of 7.4 was adjusted with 1 M NaOH). The intracellular acidification was induced by adding 975 μl of an NH4Cl-free buffer (see below) to 25 μl aliquots of the cells incubated in NH4Cl buffer. The subsequent rate of pH recovery was recorded for two minutes with NHE1, five minutes with NHE2 and three minutes with NHE3. To calculate the inhibitory power of the tested substances, the cells were initially investigated in buffers with which there was complete or absolutely no pH recovery. For complete pH recovery (100%), the cells were incubated in Na^+-containing buffer (133.8 mM NaCl, 4.7 mM KCl, 1.25 mM CaCl2, 1.25 mM MgCl2, 0.97 mM Na2HPO4, 0.23 mM NaH2PO4, 5 mM Hepes, 5 mM glucose, a pH of 7.0 was adjusted with 1 M NaOH). To determine the 0% value, the cells were incubated in an Na^+-free buffer (133.8 mM choline chloride, 4.7 mM KCl, 1.25 mM CaCl2, 1.25 mM MgCl2, 0.97 mM K2HPO4, 0.23 mM KH2PO4, 5 mM Hepes, 5 mM glucose, a pH of 7.0 was adjusted with 1 M NaOH). The substances to be tested were made up in the Na^+-containing buffer. The recovery of the intracellular pH at each tested concentration of a substance was expressed as a percentage of the maximum recovery. The IC50 of the respective substance for the individual NHE subtypes was calculated from the percentages of pH recovery using the Sigma Plot program.

Row | SMILES | IC50 (NHE3) [nM] | melting point
1 | CCCN(C)c1c(Nc2ccccc2[C@@H]2CN(C)Cc3c(Cl)cc(Cl)cc32)c(=O)c1=O [Example 37] | 850 | 236 to 240 °C
2 | COCCN(C)c1c(Nc2ccc(C3CN(C)Cc4c(Cl)cc(Cl)cc43)cc2)c(=O)c1=O (stereo not drawn) [Example 26] | 1700 | 206 to 210 °C
3 | CN1Cc2c(Cl)cc(Cl)cc2[C@H](c2ccccc2Nc2c(N3CCCC3)c(=O)c2=O)C1 [Example 41, 6,8-dichloro-2-methyl-4(R)-[2N-(2-N-pyrrolidino-3,4-dioxocyclobuten-1-yl)amino]phenyl-1,2,3,4-tetrahydroisoquinoline] | 110 | 220 to 224 °C
4 | CC(C)N(C)c1c(Nc2ccc([C@@H]3CN(C)Cc4c(Cl)cc(Cl)cc43)cc2)c(=O)c1=O [Example 28, 6,8-dichloro-2-methyl-4(S)-[4N-(2-(N-isopropyl-N-methylamino)-3,4-dioxocylcobuten-1-yl)amino]phenyl-1,2,3,4-tetrahydroisoquinoline] | 260 | 165 to 175 °C (dec.)
5 | CCCN(C)c1c(Nc2cccc([C@@H]3CN(C)Cc4c(Cl)cc(Cl)cc43)c2)c(=O)c1=O [Example 33] | 31 | 135 to 140 °C
6 | CCN(c1c(Nc2ccc([C@@H]3CN(C)Cc4c(Cl)cc(Cl)cc43)cc2)c(=O)c1=O)C(C)C [Example 32] | 680 | 160 to 190 °C
7 | CCN(CC)c1c(Nc2cccc([C@@H]3CN(C)Cc4c(Cl)cc(Cl)cc43)c2)c(=O)c1=O [Example 30] | 140 | 125 to 135 °C
8 | CN1Cc2c(Cl)cc(Cl)cc2C(c2ccc(Nc3c(N(C)Cc4ccccc4)c(=O)c3=O)cc2)C1 (stereo not drawn) [Example 38] | 8000 | 158 to 162 °C
9 | CC(C)N(C)c1c(Nc2cccc([C@@H]3CN(C)Cc4c(Cl)cc(Cl)cc43)c2)c(=O)c1=O [Example 31] | 130 | 135 to 150 °C
10 | CCN(CC)c1c(Nc2ccc([C@@H]3CN(C)Cc4c(Cl)cc(Cl)cc43)cc2)c(=O)c1=O [Example 27, 6,8-dichloro-2-methyl-4(S)-[4N-(2-diethylamino-3,4-dioxocyclobuten-1-yl)amino]phenyl-1,2,3,4-tetrahydroisoquinoline] | 210 | 220 to 225 °C
11 | CCCN(CC1CC1)c1c(Nc2ccc(C3CN(C)Cc4c(Cl)cc(Cl)cc43)cc2)c(=O)c1=O (stereo not drawn) [Example 29, 6,8-dichloro-2-methyl-4-[4N-(2-(N-cyclopropylmethyl-N-propylamino)-3,4-dioxocyclobuten-1-yl)amino]phenyl-1,2,3,4-tetrahydro-isoquinoline] | 7140 | 134 to 144 °C
12 | CC(C)N(C)c1c(Nc2ccccc2[C@@H]2CN(C)Cc3c(Cl)cc(Cl)cc32)c(=O)c1=O [Example 42] | 150 | 210 to 214 °C
13 | CCCN(CCC)c1c(Nc2ccccc2[C@@H]2CN(C)Cc3c(Cl)cc(Cl)cc32)c(=O)c1=O [Example 40] | 240 | 190 to 194 °C
14 | CCN(CC)c1c(Nc2ccccc2[C@@H]2CN(C)Cc3c(Cl)cc(Cl)cc32)c(=O)c1=O [Example 39, 6,8-dichloro-2-methyl-4(R)-[2N-(2-diethylamino-3,4-dioxocyclobuten-1-yl)amino]phenyl-1,2,3,4-tetrahydroisoquinoline] | 1520 | 246 to 250 °C
15 | CN1Cc2c(Cl)cc(Cl)cc2[C@H](c2cccc(Nc3c(N4CCCC4)c(=O)c3=O)c2)C1 [Example 34, 6,8-dichloro-2-methyl-4(S)-[3N-(2-N-pyrrolidino-3,4-dioxocyclobuten-1-yl)amino]phenyl-1,2,3,4-tetrahydroisoquinoline] | 52 | 138 to 143 °C
16 | CC(C)CN(C)c1c(Nc2ccc(C3CN(C)Cc4c(Cl)cc(Cl)cc43)cc2)c(=O)c1=O (stereo not drawn) [Example 25, 6,8-dichloro-2-methyl-4-[4N-(2-(N-isobutyl-N-methylamino)-3,4-dioxocyclobuten-1-yl)amino]phenyl-1,2,3,4-tetrahydroisoquinoline] | 2810 | > 310 °C
17 | CN1Cc2c(Cl)cc(Cl)cc2[C@H](c2ccc(Nc3c(N4CCCC4)c(=O)c3=O)cc2)C1 [Example 36, 6,8-dichloro-2-methyl-4(S)-[4N-(2-N-pyrrolidino-3,4-dioxocyclobuten-1-yl)amino]phenyl-1,2,3,4-tetrahydroisoquinoline] | 230 | 264 to 270 °C
18 | CCN(CC)c1c(Nc2ccc(C3CN(C)Cc4c(Cl)cc(Cl)cc43)cc2)c(=O)c1=O (stereo not drawn) [Example 19, 6,8-dichloro-2-methyl-4-[4N-(2-diethylamino-3,4-dioxocyclobuten-1-yl)amino]phenyl-1,2,3,4-tetrahydroisoquinoline] | 1150 | 275 to 280 °C
19 | CN1Cc2c(Cl)cc(Cl)cc2[C@H](c2cccc(Nc3c(N(C)C)c(=O)c3=O)c2)C1 [Example 22, 6,8-dichloro-2-methyl-4(S)-[3N-(2-dimethylamino-3,4-dioxocyclobuten-1-yl)amino]phenyl-1,2,3,4-tetrahydroisoquinoline] | 98.5 | 
20 | CN1Cc2c(Cl)cc(Cl)cc2C(c2ccc(Nc3c(N(C)C)c(=O)c3=O)cc2)C1 (stereo not drawn) [Example 18, 6,8-dichloro-2-methyl-4-[4N-(2-dimethylamino-3,4-dioxocyclobuten-1-yl)amino]phenyl-1,2,3,4-tetrahydroisoquinoline] | 260 | 208 to 214 °C
